Laboratory results taken from patent US20090137661A1, “PLANT DERIVED COMPOUNDS AND COMPOUND FORMULAE CONTAINING THE SAME FOR THE TREATMENT OF CERVICAL CANCER” (priority 2007, published 2009).
In brackets after ≈: the same amount, converted by molar mass. Counter-ions that a name gives are not always drawn. Like-named read-outs stand apart in the source and are kept apart here.

Legend:
HeLa cells = test: Cytotoxicity assay (MTT assay) on HeLa cells; conditions: for IC50: Homo sapiens, HeLa
Method: HeLa cell line was obtained from Dr. S. S. Shen (Biomedical Engineering Research Laboratories of Industrial Technology Research Institute of Taiwan). HeLa cells are adherent cells and were propagated and maintained in Dulbecco's modified Eagle's medium (DMEM) supplemented with 10% fetal bovine serum (FBS), […] sodium bicarbonate (NaHCO3), 1 mM sodium pyruvate, and 0.1 mM non-essential amino acid.
(§1) Cytotoxicity Assay (MTT Assay)
The cytotoxicity of the compounds set forth herein to HeLa cells and HUVEC cells were determined by the MTT assay. The HUVEC cells were used to understand the cytotoxicity of said compounds to normal human cells. Besides, doxorubicin HCl was used as a comparative example so as to investigate the efficacy of the compounds according to the embodiments of the present invention.
Briefly, the MTT assay comprises the following steps: • (A) Cells were seeded in 96-well plates 3 hours before treatment, wherein the density of HeLa cell is 1×10^4 cells per well and the density of HUVEC cell is 2×10^4 cells per well; • (B) Cells were then treated with various concentrations of tested samples and incubated for a predetermined period (24, 48, and 72 hours); • (C) After the predetermined periods expired, the tested samples were removed and 100 μl MTT reagent (1 mg/ml) was added to each well; • (D) The plates were incubated at 37° C. with 5% of CO2 for 5 hours; • (E) The MTT reagent was removed and 100 μl DMSO was added to each well; • (F) The optical density (O.D.) of each well was determined by ELISA reader at a wavelength of 560 nm.
Each experiment was repeated for 3 times and the result shown in the tables herein were the mean value of the 3 repetitions. The O.D. of the vehicle control and experimental groups were recorded. The cell survival rate of each sample was calculated as follows:
Cell survival rate(%)=O.D.control/O.D.experimental*100%
Then, the cell survival rate was plotted against the compound concentration and the IC50 value of each compound was calculated by the GraFit data analysis software (Erithacus Software Ltd.).

HUVEC cells = test: Cytotoxicity assay (MTT assay) on HUVEC cells; format: cell-based, human; conditions: for IC50: Homo sapiens
Text: Human umbilical vein endothelial cells (HUVEC) were purchased from Food Industry Research and Development Institute in Hsin-Chu City, Taiwan. HUVEC cells were propagated and maintained in Medium 199 supplemented with 10% FBS, Heparin, and […].
as §1

[1] = 24 h, read-out: IC50 at 24 hours, HeLa
[2] = 48 h, read-out: IC50 at 48 hours, HeLa
[3] = 72 h, read-out: IC50 at 72 hours, HeLa
[4] = HUVEC cells, 24 hours, read-out: IC50 at 24 hours, HUVEC
[5] = HUVEC cells, 48 hours, read-out: IC50 at 48 hours, HUVEC
[6] = HUVEC cells, 72 hours, read-out: IC50 at 72 hours, HUVEC

O=C(O)[C@H]1O[C@@H](Oc2cc3oc(-c4ccccc4)cc(=O)c3c(O)c2O)[C@H](O)[C@@H](O)[C@@H]1O [Compound G, baicalin]
HeLa Cell Survival Rate (HeLa cells; 0.1 μg/ml, 24 hrs): 104%
HeLa Cell Survival Rate (HeLa cells; 0.1 μg/ml, 48 hrs): 94%
HeLa Cell Survival Rate (HeLa cells; 0.1 μg/ml, 72 hrs): 97%
HeLa Cell Survival Rate (HeLa cells; 1 μg/ml, 24 hrs): 103%
HeLa Cell Survival Rate (HeLa cells; 1 μg/ml, 48 hrs): 96%
HeLa Cell Survival Rate (HeLa cells; 1 μg/ml, 72 hrs): 97%
HeLa Cell Survival Rate (HeLa cells; 10 μg/ml, 24 hrs): 109%
HeLa Cell Survival Rate (HeLa cells; 10 μg/ml, 48 hrs): 98%
HeLa Cell Survival Rate (HeLa cells; 10 μg/ml, 72 hrs): 97%
HeLa Cell Survival Rate (HeLa cells; 100 μg/ml, 24 hrs): 68%
HeLa Cell Survival Rate (HeLa cells; 100 μg/ml, 48 hrs): 50%
HeLa Cell Survival Rate (HeLa cells; 100 μg/ml, 72 hrs): 37%
HUVEC/HeLa ratio of IC50 (HeLa cells; 72 hours): 2.4
IC50 (HeLa cells; [1]): > 125 µg/mL
IC50 (HeLa cells; [2]): > 125 µg/mL
IC50 (HeLa cells; [3]): 92 µg/mL (≈ 206 µM)
HUVEC Cell Survival Rate (HUVEC cells; 1.25 μg/ml, 24 hrs): 98%
HUVEC Cell Survival Rate (HUVEC cells; 1.25 μg/ml, 48 hrs): 96%
HUVEC Cell Survival Rate (HUVEC cells; 1.25 μg/ml, 72 hrs): 88%
HUVEC Cell Survival Rate (HUVEC cells; 12.5 μg/ml, 24 hrs): 97%
HUVEC Cell Survival Rate (HUVEC cells; 12.5 μg/ml, 48 hrs): 101%
HUVEC Cell Survival Rate (HUVEC cells; 12.5 μg/ml, 72 hrs): 75%
HUVEC Cell Survival Rate (HUVEC cells; 125 μg/ml, 24 hrs): 81%
HUVEC Cell Survival Rate (HUVEC cells; 125 μg/ml, 48 hrs): 76%
HUVEC Cell Survival Rate (HUVEC cells; 125 μg/ml, 72 hrs): 56%
IC50 (HUVEC cells; [4]): > 125 µg/mL
IC50 (HUVEC cells; [5]): > 125 µg/mL
IC50 (HUVEC cells; [6]): 218 µg/mL (≈ 488 µM)

COc1ccc2cc3[n+](cc2c1OC)CCc1cc2c(cc1-3)OCO2.[Cl-] [Compound H, berberine hydrochloride]
cytotoxicity to HeLa cells compared with Doxorubicin HCl (HeLa cells): higher cytotoxicity
HeLa Cell Survival Rate (HeLa cells; 0.1 μg/ml, 24 hrs): 89%
HeLa Cell Survival Rate (HeLa cells; 0.1 μg/ml, 48 hrs): 98%
HeLa Cell Survival Rate (HeLa cells; 0.1 μg/ml, 72 hrs): 98%
HeLa Cell Survival Rate (HeLa cells; 1 μg/ml, 24 hrs): 87%
HeLa Cell Survival Rate (HeLa cells; 1 μg/ml, 48 hrs): 84%
HeLa Cell Survival Rate (HeLa cells; 1 μg/ml, 72 hrs): 91%
HeLa Cell Survival Rate (HeLa cells; 10 μg/ml, 24 hrs): 82%
HeLa Cell Survival Rate (HeLa cells; 10 μg/ml, 48 hrs): 71%
HeLa Cell Survival Rate (HeLa cells; 10 μg/ml, 72 hrs): 62%
HeLa Cell Survival Rate (HeLa cells; 100 μg/ml, 24 hrs): 28%
HeLa Cell Survival Rate (HeLa cells; 100 μg/ml, 48 hrs): 17%
HeLa Cell Survival Rate (HeLa cells; 100 μg/ml, 72 hrs): 10%
HUVEC/HeLa ratio of IC50 (HeLa cells; 24 hours): 0.8
HUVEC/HeLa ratio of IC50 (HeLa cells; 48 hours): 0.7
HUVEC/HeLa ratio of IC50 (HeLa cells; 72 hours): 0.6
IC50 at 24 hours, HeLa (HeLa cells; HeLa cells, 24 hours): 39 µg/mL
IC50 at 72 hours, HeLa (HeLa cells; HeLa cells, 72 hours): 15 µg/mL
IC50 for inhibiting HeLa cells as restated in text (HeLa cells; values taken from tables 4 and 5 (48 hours), unit inferred): 21 µg/mL
HUVEC Cell Survival Rate (HUVEC cells; 1 μg/ml, 24 hrs): 89%
HUVEC Cell Survival Rate (HUVEC cells; 1 μg/ml, 48 hrs): 81%
HUVEC Cell Survival Rate (HUVEC cells; 1 μg/ml, 72 hrs): 77%
HUVEC Cell Survival Rate (HUVEC cells; 10 μg/ml, 24 hrs): 76%
HUVEC Cell Survival Rate (HUVEC cells; 10 μg/ml, 48 hrs): 64%
HUVEC Cell Survival Rate (HUVEC cells; 10 μg/ml, 72 hrs): 51%
HUVEC Cell Survival Rate (HUVEC cells; 100 μg/ml, 24 hrs): 23%
HUVEC Cell Survival Rate (HUVEC cells; 100 μg/ml, 48 hrs): 16%
HUVEC Cell Survival Rate (HUVEC cells; 100 μg/ml, 72 hrs): 15%
IC50 at 24 hours, HUVEC (HUVEC cells; HUVEC cells, 24 hours): 30 µg/mL
IC50 at 48 hours, HUVEC (HUVEC cells; HUVEC cells, 48 hours): 15 µg/mL
IC50 at 72 hours, HUVEC (HUVEC cells; HUVEC cells, 72 hours): 9 µg/mL

COc1cccc2c1C(=O)c1c(O)c3c(c(O)c1C2=O)C[C@@](O)(C(=O)CO)C[C@@H]3O[C@H]1C[C@H](N)[C@H](O)[C@H](C)O1 [Doxorubin HCl, Doxorubicin HCl, reference compound]
HeLa Cell Survival Rate (HeLa cells; 0.00058 μg/ml, 24 hrs): 96%
HeLa Cell Survival Rate (HeLa cells; 0.00058 μg/ml, 48 hrs): 100%
HeLa Cell Survival Rate (HeLa cells; 0.00058 μg/ml, 72 hrs): 97%
HeLa Cell Survival Rate (HeLa cells; 0.0058 μg/ml, 24 hrs): 95%
HeLa Cell Survival Rate (HeLa cells; 0.0058 μg/ml, 48 hrs): 92%
HeLa Cell Survival Rate (HeLa cells; 0.0058 μg/ml, 72 hrs): 89%
HeLa Cell Survival Rate (HeLa cells; 0.058 μg/ml, 24 hrs): 84%
HeLa Cell Survival Rate (HeLa cells; 0.058 μg/ml, 48 hrs): 81%
HeLa Cell Survival Rate (HeLa cells; 0.058 μg/ml, 72 hrs): 72%
HeLa Cell Survival Rate (HeLa cells; 0.58 μg/ml, 24 hrs): 46%
HeLa Cell Survival Rate (HeLa cells; 0.58 μg/ml, 48 hrs): 23%
HeLa Cell Survival Rate (HeLa cells; 0.58 μg/ml, 72 hrs): 11%
HUVEC/HeLa ratio of IC50 (HeLa cells; 24 hours): >1.2
HUVEC/HeLa ratio of IC50 (HeLa cells; 48 hours): 1.5
HUVEC/HeLa ratio of IC50 (HeLa cells; 72 hours): 1.8
IC50 (HeLa cells; [1]): 0.48 µg/mL
IC50 (HeLa cells; [2]): 0.2 µg/mL
IC50 (HeLa cells; [3]): 0.12 µg/mL
HUVEC Cell Survival Rate (HUVEC cells; 0.145 μg/ml, 24 hrs): 111%
HUVEC Cell Survival Rate (HUVEC cells; 0.145 μg/ml, 48 hrs): 77%
HUVEC Cell Survival Rate (HUVEC cells; 0.145 μg/ml, 72 hrs): 68%
HUVEC Cell Survival Rate (HUVEC cells; 0.290 μg/ml, 24 hrs): 100%
HUVEC Cell Survival Rate (HUVEC cells; 0.290 μg/ml, 48 hrs): 56%
HUVEC Cell Survival Rate (HUVEC cells; 0.290 μg/ml, 72 hrs): 38%
HUVEC Cell Survival Rate (HUVEC cells; 0.580 μg/ml, 24 hrs): 90%
HUVEC Cell Survival Rate (HUVEC cells; 0.580 μg/ml, 48 hrs): 19%
HUVEC Cell Survival Rate (HUVEC cells; 0.580 μg/ml, 72 hrs): 14%
IC50 (HUVEC cells; [4]): > 0.58 µg/mL
IC50 (HUVEC cells; [5]): 0.299 µg/mL
IC50 (HUVEC cells; [6]): 0.22 µg/mL
